pIC50: −log10 of the molar value.

Test [1] concerns the target T1, human CB1 receptor (Homo sapiens, UniProt P21554).
T1 construct: expressed in transfected cells; host or cells: HEK293
Kind of test: bioSensAll GAPL-Gi2 BRET biosensor assay in HEK293 cells transfected with hCB1; test compound added before EC75-80 of agonist CP55,940 (0.1 nM). Format: cell-based. Particulars: vs CP55,940 0.1 nM (EC75-80), read-out: CB1 wt Gi2 IC50. The gist of the method: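 Test compounds at 12 doses up to 600 nM preceded a 0.1 nM CP55,940 challenge in hCB1/GAPL-Gi2 HEK293 cells. After overnight 37° C incubation, methoxy e-coelenterazine (2 µM final) was added and the 515/400 nm BRET ratio normalized to positive and negative controls.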
A general note: In BRET a luciferase serves as donor, and the signal depends on an acceptor being close.

For test [2], the target named is T1, human CB1 receptor. Kind of test: bioSensAll β-arrestin2 plasma membrane translocation (+GRK2) BRET biosensor assay in HEK293 cells transfected with hCB1; test compound added before EC75-80 of agonist CP55,940 (100 nM). Format: cell-based. The settings on record: βArrestin2 (+GRK2) BRET biosensor, vs CP55,940 100 nM (EC75-80), read-out: CB1 wt βarr2 IC50. The gist of the method: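 Antagonist mode: compound at 12 concentrations up to 600 nM, then 100 nM CP55,940 3–5 min later, on hCB1-transfected HEK293 cells carrying the β-arrestin2 plasma-membrane biosensor plus GRK2. After overnight 37 °C incubation, 515/400 nm BRET ratio measured with 2 µM methoxy e-CTZ and standardized against positive/negative controls.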

T1 sequence (P21554 whole entry): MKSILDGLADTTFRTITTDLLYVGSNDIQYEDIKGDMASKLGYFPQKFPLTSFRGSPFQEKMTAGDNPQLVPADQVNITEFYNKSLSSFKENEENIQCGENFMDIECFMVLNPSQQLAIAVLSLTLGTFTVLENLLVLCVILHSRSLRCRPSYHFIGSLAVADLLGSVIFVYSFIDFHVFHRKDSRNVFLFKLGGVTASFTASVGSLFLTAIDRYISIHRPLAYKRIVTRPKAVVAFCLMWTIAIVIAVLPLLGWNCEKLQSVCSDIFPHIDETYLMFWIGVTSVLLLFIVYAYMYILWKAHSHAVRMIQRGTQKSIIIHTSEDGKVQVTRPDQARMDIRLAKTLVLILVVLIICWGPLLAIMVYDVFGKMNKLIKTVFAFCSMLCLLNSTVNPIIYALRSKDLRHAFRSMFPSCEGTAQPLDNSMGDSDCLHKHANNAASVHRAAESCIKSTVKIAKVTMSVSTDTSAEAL

As usually defined, the pIC50 is the IC50 on a negative log10 scale, so that one unit is a factor of ten. Consider `C[C@@H](O)COc1nc(N2CCC(C)(C(N)=O)CC2)c2nc(-c3ccccc3Cl)n(-c3ccc(Cl)cc3)c2n1` [Compound 79, 1-[8-(2-chlorophenyl)-9-(4-chlorophenyl)-2-[(2R)-2-hydroxypropoxy]purin-6-yl]-4-methyl-piperidine-4-carboxamide], for which the pIC50 was 9.06 on human CB1 receptor [1] and 8.36 on human CB1 receptor [2].

`C[C@H](O)COc1nc(N2CCC(C)(C(N)=O)CC2)c2nc(-c3ccccc3Cl)n(-c3ccc(Cl)cc3)c2n1` [Compound 80, 1-[8-(2-chlorophenyl)-9-(4-chlorophenyl)-2-[(2S)-2-hydroxypropoxy]purin-6-yl]-4-methyl-pi-peridine-4-carboxamide]: the pIC50 at human CB1 receptor [1] is 8.99; on human CB1 receptor [2] it was 8.29.

With `C[C@H](CO)Oc1nc(N2CCC(C)(C(N)=O)CC2)c2nc(-c3ccccc3Cl)n(-c3ccc(Cl)cc3)c2n1` [Compound 81, 1-[8-(2-chlorophenyl)-9-(4-chlorophenyl)-2-[(1R)-2-hydroxy-1-methyl-ethoxy]purin-6-yl]-4-methyl-piperidine-4-carboxamide], the negative-log IC50 (pIC50) is 9.05 at human CB1 receptor [1] and 8.31 on human CB1 receptor [2].

With `C[C@@H](CO)Oc1nc(N2CCC(C)(C(N)=O)CC2)c2nc(-c3ccccc3Cl)n(-c3ccc(Cl)cc3)c2n1` [Compound 82, 1-[8-(2-chlorophenyl)-9-(4-chlorophenyl)-2-[(1S)-2-hydroxy-1-methyl-ethoxy]purin-6-yl]-4-methyl-piperidine-4-carboxamide], the pIC50 at human CB1 receptor [1] was 9.12; on human CB1 receptor [2] it was 8.35.

For the compound `C[C@@H](O)CNc1nc(N2CCC(C)(C(N)=O)CC2)c2nc(-c3ccccc3Cl)n(-c3ccc(Cl)cc3)c2n1` [Compound 83, 1-[8-(2-chlorophenyl)-9-(4-chlorophenyl)-2-[[(2R)-2-hydroxypropyl]amino]purin-6-yl]-4-methyl-piperidine-4-carboxamide], the pIC50 on human CB1 receptor [1] is 8.94; at human CB1 receptor [2], 8.20.

`C[C@H](O)CNc1nc(N2CCC(C)(C(N)=O)CC2)c2nc(-c3ccccc3Cl)n(-c3ccc(Cl)cc3)c2n1` [Compound 84, 1-[8-(2-chlorophenyl)-9-(4-chlorophenyl)-2-[[(2S)-2-hydroxypropyl]amino]purin-6-yl]-4-methyl-piperidine-4-carboxamide]: the values for the pIC50 on human CB1 receptor [1] and on human CB1 receptor [2] were 8.68 and 7.93, respectively.

Take `CC(C)(O)CNc1nc(N2CCC(C)(C(N)=O)CC2)c2nc(-c3ccccc3Cl)n(-c3ccc(Cl)cc3)c2n1` [Compound 85, 1-[8-(2-chlorophenyl)-9-(4-chlorophenyl)-2-[(2-hydroxy-2-methyl-propyl)amino]purin-6-yl]-4-methyl-piperidine-4-carboxamide]: the negative-log IC50 (pIC50) at human CB1 receptor [1] was 9.12; on human CB1 receptor [2], 8.17.

With `CC(C)Oc1nc(OCC(C)(C)O)nc2c1nc(-c1ccccc1Cl)n2-c1ccc(Cl)cc1` [Compound 86], the pIC50 at human CB1 receptor [1] is 8.86; on human CB1 receptor [2], 8.02.

Turning to `CC(C)Nc1nc(OCC(C)(C)O)nc2c1nc(-c1ccccc1Cl)n2-c1ccc(Cl)cc1` [Compound 87], the pIC50 on human CB1 receptor [1] was 8.51; at human CB1 receptor [2], 7.67.

On to `CC(C)C(=O)Nc1nc(N2CCC(C)(C#N)CC2)c2nc(-c3ccccc3Cl)n(-c3ccc(Cl)cc3)c2n1` [Compound 89, N-[8-(2-chlorophenyl)-9-(4-chlorophenyl)-6-(4-cyano-4-methyl-1-piperidyl)purin-2-yl]-2-methyl-propanamide], for which the results for the pIC50 at human CB1 receptor [1] and on human CB1 receptor [2] were 9.10 and 8.64, respectively.

Regarding `CCN(CCO)c1nc(N2CCC(C)(C(N)=O)CC2)c2nc(-c3ccccc3Cl)n(-c3ccc(Cl)cc3)c2n1` [Compound 90, 1-[8-(2-chlorophenyl)-9-(4-chlorophenyl)-2-[ethyl(2-hydroxyethyl)amino]purin-6-yl]-4-methyl-piperidine-4-carboxamide], the pIC50 was 9.28 on human CB1 receptor [1] and 8.87 at human CB1 receptor [2].

With `CO[C@@H]1CCN(c2nc(N3CCC(C)(C(N)=O)CC3)c3nc(-c4ccccc4Cl)n(-c4ccc(Cl)cc4)c3n2)C1` [Compound 91, 1-[8-(2-chlorophenyl)-9-(4-chlorophenyl)-2-[(3R)-3-methoxypyrrolidin-1-yl]purin-6-yl]-4-methyl-piperidine-4-carboxamide], the pIC50 at human CB1 receptor [1] was 9.10; on human CB1 receptor [2], 8.59.

As to `CO[C@H]1CCN(c2nc(N3CCC(C)(C(N)=O)CC3)c3nc(-c4ccccc4Cl)n(-c4ccc(Cl)cc4)c3n2)C1` [Compound 92, 1-[8-(2-chlorophenyl)-9-(4-chlorophenyl)-2-[(3S)-3-methoxypyrrolidin-1-yl]purin-6-yl]-4-methyl-piperidine-4-carboxamide], the results for the pIC50 at human CB1 receptor [1] and at human CB1 receptor [2] were 8.77 and 8.10, respectively.

Turning to `CC1(C(N)=O)CCN(c2nc(N3CC[C@@H](O)C3)nc3c2nc(-c2ccccc2Cl)n3-c2ccc(Cl)cc2)CC1` [Compound 93, 1-[8-(2-chlorophenyl)-9-(4-chlorophenyl)-2-[(3R)-3-hydroxypyrrolidin-1-yl]purin-6-yl]-4-methyl-piperidine-4-carboxamide], the pIC50 at human CB1 receptor [1] is 9.22; at human CB1 receptor [2], 8.84.

For the compound `CC1(C(N)=O)CCN(c2nc(N3CC[C@H](O)C3)nc3c2nc(-c2ccccc2Cl)n3-c2ccc(Cl)cc2)CC1` [Compound 94, 1-[8-(2-chlorophenyl)-9-(4-chlorophenyl)-2-[(3S)-3-hydroxypyrrolidin-1-yl]purin-6-yl]-4-methyl-piperidine-4-carboxamide], the pIC50 on human CB1 receptor [1] was 9.09; at human CB1 receptor [2], 8.62.

As to `CC(C)(O)COc1nc(N2CCC(C)(C(N)=O)CC2)c2nc(-c3ccccc3Cl)n(-c3ccccc3)c2n1` [Compound 95, 1-[8-(2-chlorophenyl)-2-(2-hydroxy-2-methyl-propoxy)-9-phenyl-purin-6-yl]-4-methyl-piperidine-4-carboxamide], the results for the pIC50 at human CB1 receptor [1] and on human CB1 receptor [2] were 7.89 and 7.14, respectively.

As for `CC(C)N1CCN(c2nc(OCC(C)(C)O)nc3c2nc(-c2ccccc2Cl)n3-c2ccc(Cl)cc2)CC1` [Compound 96], the results for the negative-log IC50 (pIC50) at human CB1 receptor [1] and on human CB1 receptor [2] were 8.46 and 8.25, respectively.

Take `CN(CCO)c1nc(OCC(C)(C)O)nc2c1nc(-c1ccccc1Cl)n2-c1ccc(Cl)cc1` [Compound 97]: the pIC50 at human CB1 receptor [1] was 7.59; at human CB1 receptor [2] it was 6.91.

With `CCOc1nc(OCC(C)(C)O)nc2c1nc(-c1ccccc1Cl)n2-c1ccc(Cl)cc1` [Compound 99], the results for the pIC50 at human CB1 receptor [1] and at human CB1 receptor [2] were 8.35 and 7.44, respectively.

Turning to `CC(C)(O)COc1nc(NCC(N)=O)c2nc(-c3ccccc3Cl)n(-c3ccc(Cl)cc3)c2n1` [Compound 100], the pIC50 on human CB1 receptor [1] and on human CB1 receptor [2] was under 5.30 in each case.

`CC(C)Oc1nc(OC[C@H](C)O)nc2c1nc(-c1ccccc1Cl)n2-c1ccc(Cl)cc1` [Compound 101]: the pIC50 on human CB1 receptor [1] is 8.82; on human CB1 receptor [2], 7.80.

As for `CN(C)CCNc1nc(N2CCC(C)(C(N)=O)CC2)c2nc(-c3ccccc3Cl)n(-c3ccc(Cl)cc3)c2n1` [Compound 102, 1-[8-(2-chlorophenyl)-9-(4-chlorophenyl)-2-[2-(dimethylamino)ethylamino]purin-6-yl]-4-methyl-piperidine-4-carboxamide], the pIC50 on human CB1 receptor [1] was 7.30; on human CB1 receptor [2] it was 7.40.

Turning to `CC(C)(O)COc1nc(N2CCC(C)(C(N)=O)CC2)c2nc(-c3cccnc3)n(-c3ccc(Cl)cc3)c2n1` [Compound 103, 1-[9-(4-chlorophenyl)-2-(2-hydroxy-2-methyl-propoxy)-8-(3-pyridyl)purin-6-yl]-4-methyl-piperidine-4-carboxamide], the pIC50 was 6.88 at human CB1 receptor [1] and under 5.30 on human CB1 receptor [2].

Regarding `Cc1ncccc1-c1nc2c(N3CCC(C)(C(N)=O)CC3)nc(OCC(C)(C)O)nc2n1-c1ccc(Cl)cc1` [Compound 104, 1-[9-(4-chlorophenyl)-2-(2-hydroxy-2-methyl-propoxy)-8-(2-methyl-3-pyridyl)purin-6-yl]-4-methyl-piperidine-4-carboxamide], the pIC50 is 7.31 on human CB1 receptor [1] and under 5.30 on human CB1 receptor [2].

With `Cc1ccncc1-c1nc2c(N3CCC(C)(C(N)=O)CC3)nc(OCC(C)(C)O)nc2n1-c1ccc(Cl)cc1` [Compound 105, 1-[9-(4-chlorophenyl)-2-(2-hydroxy-2-methyl-propoxy)-8-(4-methyl-3-pyridyl)purin-6-yl]-4-methyl-piperidine-4-carboxamide], the pIC50 on human CB1 receptor [1] is 7.75; at human CB1 receptor [2], 6.12.

On to `CC(C)(O)COc1nc(N2CCC(C)(C(N)=O)CC2)c2nc(-c3ccc(C#N)cc3)n(-c3ccc(Cl)cc3)c2n1` [Compound 106, 1-[9-(4-chlorophenyl)-8-(4-cyanophenyl)-2-(2-hydroxy-2-methyl-propoxy)purin-6-yl]-4-methyl-piperidine-4-carboxamide], for which the pIC50 on human CB1 receptor [1] is 7.85; on human CB1 receptor [2], 7.29.

As for `Cc1cc(C#N)ncc1-c1nc2c(N3CCC(C)(C(N)=O)CC3)nc(OCC(C)(C)O)nc2n1-c1ccc(Cl)cc1` [Compound 108, 1-[9-(4-chlorophenyl)-8-(6-cyano-4-methyl-3-pyridyl)-2-(2-hydroxy-2-methyl-propoxy)purin-6-yl]-4-methyl-piperidine-4-carboxamide], the pIC50 on human CB1 receptor [1] is 8.45; on human CB1 receptor [2] it was 7.58.

With `CC(C)(O)COc1nc(N2CCC(C)(C(N)=O)CC2)c2nc(-c3ccc(C#N)nc3)n(-c3ccc(Cl)cc3)c2n1` [Compound 109, 1-[9-(4-chlorophenyl)-8-(6-cyano-3-pyridyl)-2-(2-hydroxy-2-methyl-propoxy)purin-6-yl]-4-methyl-piperidine-4-carboxamide], the pIC50 was 7.88 on human CB1 receptor [1] and 7.21 on human CB1 receptor [2].

Source of the values: patent US20250333418A1, “PURINE COMPOUNDS, COMPOSITIONS COMPRISING THEM AND USES THEREOF” (Novo Nordisk A/S, priority 2022, published 2025).
